Results as given in patent US20060264419A1 (priority 2003, published 2006).

What follows are compounds tested against 5-HT2A receptors (Rattus norvegicus, UniProt P14842) (assay: in-vitro affinity to 5-HT2A receptors, displacement of [3H]ketanserine (Example A1)). Conditions: read-out: HT2A IC50.
Assay type: binding
Description: The 5-HT2A receptors are exposed both to [^3H]ketanserine (a substance which is known for its affinity to the receptor) and also to the test compound. The decrease in the affinity of [^3H]ketanserine to the receptor is an indication of the affinity of the test substance to the 5-HT2A receptor.

Chain of 5-HT2A receptors (P14842 whole entry): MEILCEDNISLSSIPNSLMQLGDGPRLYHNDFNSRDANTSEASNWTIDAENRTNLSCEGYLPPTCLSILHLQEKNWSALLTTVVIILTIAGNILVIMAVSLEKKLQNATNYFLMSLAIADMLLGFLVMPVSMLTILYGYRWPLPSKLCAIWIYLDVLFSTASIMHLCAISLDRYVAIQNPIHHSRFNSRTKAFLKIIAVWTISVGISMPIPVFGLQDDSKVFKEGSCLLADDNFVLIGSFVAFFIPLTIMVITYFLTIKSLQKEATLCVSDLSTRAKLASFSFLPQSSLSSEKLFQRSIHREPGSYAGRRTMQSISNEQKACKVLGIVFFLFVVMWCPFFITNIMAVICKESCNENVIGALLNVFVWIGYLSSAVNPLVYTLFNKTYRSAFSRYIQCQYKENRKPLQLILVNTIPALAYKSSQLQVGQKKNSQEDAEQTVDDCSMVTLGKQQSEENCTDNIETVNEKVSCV

SMILES	IC50 [nM]
Cc1cnc(NCc2cnn(-c3ccc(-c4ccccc4)cc3)c2-c2ccccc2F)s1 [Example 1046, [1-Biphenyl-4-yl-5-(2-fluorophenyl)-1H-pyrazol-4-ylmethyl]-(5-methylthiazol-2-yl)amine]	370
CCN1CCN(Cc2cnn(-c3ccc(-c4ccc(F)cc4)cc3)c2-c2ccc(OC)cc2)CC1 [Example 1011, 1-Ethyl-4-[1-(4′-fluorobiphenyl-4-yl)-5-(4-methoxyphenyl)-1H-pyrazol-4-ylmethyl]-piperazine]	200
Cc1ccc(-c2ccc(-n3ncc(CN4CCN(C)CC4)c3-c3ccccc3F)cc2)c(F)c1F [Example 959, 1-[1-(2′,3′-Difluoro-4′-methylbiphenyl-4-yl)-5-(2-fluorophenyl)-1H-pyrazol-4-ylmethyl]-4-methylpiperazine]	60
CN1CCN(Cc2cnn(-c3ccc(-c4cccc(Cl)c4)cc3)c2-c2ccccc2F)CC1 [Example 963, 1-[1-(3′-Chlorobiphenyl-4-yl)-5-(2-fluoro-phenyl)-1H-pyrazol-4-ylmethyl]-4-methyl-piperazine]	69
CN1CCN(Cc2cnn(-c3ccc(-c4ccc(F)cc4)cc3)c2-c2ccc(Cl)c(Cl)c2)CC1 [Example 1007, 1-[5-(3,4-Dichlorophenyl)-1-(4′-fluoro-biphenyl-4-yl)-1H-pyrazol-4-ylmethyl]-4-methyl-piperazine]	190
CCNC(=O)CN1CCN(Cc2cnn(-c3ccc(-c4ccccc4)cc3)c2-c2ccccc2F)CC1 [Example 1018, 2-{4-[1-Biphenyl-4-yl-5-(2-fluoro-phenyl)-1H-pyrazol-4-ylmethyl]piperazin-1-yl}-N-ethyl-acetamide]	230
Fc1ccccc1-c1c(CN2CC3CC2CO3)cnn1-c1ccc(-c2ccccc2)cc1 (stereo not drawn) [Example 996, 5-[1-Biphenyl-4-yl-5-(2-fluorophenyl)-1H-pyrazol-4-ylmethyl]-2-oxa-5-azabicyclo-[2.2.1]heptane]	160
CC(C)(C)OC(=O)N1CCC(NCc2cnn(-c3ccc(-c4ccccc4)cc3)c2-c2ccccc2F)C1 (stereo not drawn) [Example 1056, tert-Butyl 3-{[1-biphenyl-4-yl-5-(2-fluoro-phenyl)-1H-pyrazol-4-ylmethyl]amino}pyrrolidine-1-carboxylate]	460

Results, then the compound that gave them:

IC50 [nM]	SMILES
120	CN1CCN(Cc2cnn(-c3ccc(-c4ccccc4Cl)cc3)c2-c2ccccc2F)CC1 [Example 984, 1-[1-(2′-Chlorobiphenyl-4-yl)-5-(2-fluoro-phenyl)-1H-pyrazol-4-ylmethyl]-4-methyl-piperazine]
75	Fc1ccccc1-c1c(CN2CCN(Cc3ccncc3)CC2)cnn1-c1ccc(-c2ccccc2)cc1 [Example 968, 1-[1-Biphenyl-4-yl-5-(2-fluorophenyl)-1H-pyrazol-4-ylmethyl]-4-pyridin-4-ylmethylpiperazine]
200	CN(C)C1CCN(Cc2cnn(-c3ccc(-c4ccccc4)cc3)c2-c2ccccc2F)CC1 [Example 1008, {1-[1-Biphenyl-4-yl-5-(2-fluorophenyl)-1H-pyrazol-4-ylmethyl]piperidin-4-yl}dimethyl-amine]
36	Fc1ccccc1-c1c(CN2CC=CC2)cnn1-c1ccc(-c2ccccc2)cc1 [Example 939, 1-Biphenyl-4-yl-4-(2,5-dihydropyrrol-1-yl-methyl)-5-(2-fluorophenyl)-1H-pyrazole]

Same assay, conditions: target not given; description names affinity to 5-HT2A receptors; read-out: IC50

SMILES	IC50 [nM]
NC(=O)C1CCN(Cc2cnn(-c3ccc(-c4ccccc4)cc3)c2-c2ccccc2F)CC1 [(85), 1-[1-Biphenyl-4-yl-5-(2-fluorophenyl)-1H-pyrazol-4-ylmethyl]-piperidine-4-carboxamide]	870
Fc1ccccc1-c1c(CN2CCc3ccccc3C2)cnn1-c1ccc(-c2ccccc2)cc1 [(36), 2-[1-Biphenyl-4-yl-5-(2-fluorophenyl)-1H-pyrazol-4-ylmethyl]-1,2,3,4-tetrahydroisoquinoline]	70
Fc1ccc(-c2ccc(-n3ncc(CN4CCCC4)c3-c3ccccc3F)cn2)cc1 [(142), 2-(4-Fluorophenyl)-5-[5-(2-fluorophenyl)-4-pyrrolidin-1-ylmethylpyrazol-1-yl]pyridine]	75
COCCN(C)Cc1cnn(-c2ccc(-c3ccc(F)cc3)nc2)c1-c1ccccc1F [(156), {5-(2-Fluorophenyl)-1-[6-(4-fluorophenyl)pyridin-3-yl]-1H-pyrazol-4-ylmethyl}-(2-methoxyethyl)methylamine]	300
c1ccc(-c2ccc(-n3ncc(CNCc4ccccn4)c3-c3ccccc3)cc2)cc1 [(172), (1-Biphenyl-4-yl-5-phenyl-1H-pyrazol-4-ylmethyl)pyridin-2-ylmethylamine]	23
OC1CC2CCC(C1)N2Cc1cnn(-c2ccc(-c3ccccc3)cc2)c1-c1ccccc1F (stereo not drawn) [(83), 8-[1-Biphenyl-4-yl-5-(2-fluorophenyl)-1H-pyrazol-4-ylmethyl]-8-azabicyclo[3.2.1]octan-3-ol]	1100
NCCNCc1cnn(-c2ccc(-c3ccccc3)cc2)c1-c1ccccc1F [(76), N^1-[1-Biphenyl-4-yl-5-(2-fluorophenyl)-1H-pyrazol-4-ylmethyl]-ethane-1,2-diamine]	6.5
Fc1ccccc1-c1c(CNCc2cccnc2)cnn1-c1ccc(-c2ccccc2)cc1 [(89), [1-Biphenyl-4-yl-5-(2-fluorophenyl)-1H-pyrazol-4-ylmethyl]-pyridin-3-ylmethylamine]	180
CCN(CC)Cc1cnn(-c2ccc(-c3ccccc3)cc2)c1-c1ccccc1F [(33), [1-Biphenyl-4-yl-5-(2-fluorophenyl)-1H-pyrazol-4-ylmethyl]-diethylamine]	55
CC(C)c1ccc(-n2ncc(CN3CCN(C)CC3)c2-c2ccccc2F)cc1 [(114), 1-[5-(2-Fluorophenyl)-1-(4-isopropylphenyl)-1H-pyrazol-4-ylmethyl]-4-methylpiperazine]	120
COc1ccccc1-c1c(CN2CCN(C)CC2)cnn1-c1ccc(-c2ccsc2)cc1 [(105), 1-[5-(2-Methoxyphenyl)-1-(4-thiophen-3-ylphenyl)-1H-pyrazol-4-ylmethyl]-4-methylpiperazine]	460
Fc1ccc(-c2ccc(-n3ncc(CN4CCOCC4)c3-c3ccccc3F)cc2)cc1 [(61), 4-[1-(4′-Fluorobiphenyl-4-yl)-5-(2-fluorophenyl)-1H-pyrazol-4-ylmethyl]morpholine]	520
CN1CCN(Cc2cnn(-c3ccc(-n4cccc4)cc3)c2-c2ccccc2F)CC1 [(106), 1-[5-(2-Fluorophenyl)-1-(4-pyrrol-1-ylphenyl)-1H-pyrazol-4-ylmethyl]-4-methylpiperazine]	17
CN1CCN(Cc2cnn(-c3ccc(-c4ccncc4)cc3)c2-c2ccccc2F)CC1 [(121), 1-[5-(2-Fluorophenyl)-1-(4-pyridin-4-ylphenyl)-1H-pyrazol-4-ylmethyl]-4-methylpiperazine]	77
COc1ccccc1-c1c(CN2CCN(C)CC2)cnn1-c1ccc(-c2cc(F)ccc2F)cc1 [(71), 1-[1-(2′,5′-Difluorobiphenyl-4-yl)-5-(2-methoxyphenyl)-1H-pyrazol-4-ylmethyl]-4-methylpiperazine]	77
Fc1ccccc1-c1c(CN2CCNCC2)cnn1-c1ccc(C(F)(F)F)cc1 [(86), 1-[5-(2-Fluorophenyl)-1-(4-trifluoromethylphenyl)-1H-pyrazol-4-ylmethyl]piperazine]	43
OCCc1cnn(-c2ccc(-c3ccccc3)cc2)c1-c1ccccc1F [(173), 2-[1-Biphenyl-4-yl-5-(2-fluorophenyl)-1H-pyrazol-4-yl]-ethanol]	470

The next lines start with the values.

IC50 [nM]	SMILES
460	CC(C)(C)OC(=O)N1CCC(NCc2cnn(-c3ccc(-c4ccccc4)cc3)c2-c2ccccc2F)C1 (stereo not drawn) [(176), tert-Butyl 3-{[1-biphenyl-4-yl-5-(2-fluorophenyl)-1H-pyrazol-4-ylmethyl]amino}pyrrolidine-1-carboxylate]
580	CCOC(=O)N1CCC(NCc2cnn(-c3ccc(-c4ccccc4)cc3)c2-c2ccccc2F)CC1 [(72), Ethyl 4-{[1-biphenyl-4-yl-5-(2-fluorophenyl)-1H-pyrazol-4-ylmethyl]amino}piperidine-1-carboxylate]
370	Cc1cnc(NCc2cnn(-c3ccc(-c4ccccc4)cc3)c2-c2ccccc2F)s1 [(178), [1-Biphenyl-4-yl-5-(2-fluorophenyl)-1H-pyrazol-4-ylmethyl]-(5-methylthiazol-2-yl)amine]
1200	OCc1cnn(-c2ccc(-c3ccccc3)cc2)c1-c1ccccc1F [(21), [1-Biphenyl-4-yl-5-(2-fluorophenyl)-1H-pyrazol-4-yl]-methanol]
120	CN1CCN(Cc2cnn(-c3ccc(-c4ccc(F)cc4)nc3)c2-c2ccccc2F)CC1 [(116), 1-{5-(2-Fluorophenyl)-1-[6-(4-fluorophenyl)pyridin-3-yl]-1H-pyrazol-4-ylmethyl}-4-methylpiperazine]
36	Fc1ccccc1-c1c(CN2CC=CC2)cnn1-c1ccc(-c2ccccc2)cc1 [(30), 1-Biphenyl-4-yl-4-(2,5-dihydropyrrol-1-ylmethyl)-5-(2-fluorophenyl)-1H-pyrazole]
17	Fc1ccccc1-c1c(C=CCN2CCOCC2)cnn1-c1ccc(-c2ccccc2)cc1 [(46), 4-{3-[1-Biphenyl-4-yl-5-(2-fluorophenyl)-1H-pyrazol-4-yl]allyl}morpholine]
620	CN1CCN(CC(O)CC(O)c2cnn(-c3ccc(-c4ccccc4)cc3)c2-c2ccccc2F)CC1 (stereo not drawn) [(149), 1-[1-Biphenyl-4-yl-5-(2-fluorophenyl)-1H-pyrazol-4-yl]-4-(4-methylpiperazin-1-yl)butane-1,3-diol]
6000	O=C1NOCC1NCc1cnn(-c2ccc(-c3ccccc3)cc2)c1-c1ccccc1F (stereo not drawn) [(131), 4-{[1-Biphenyl-4-yl-5-(2-fluorophenyl)-1H-pyrazol-4-ylmethyl]-amino}isoxazolidin-3-one]
58	CCOC(=O)N1CCN(Cc2cnn(-c3ccc(-c4ccccc4)cc3)c2-c2ccccc2F)CC1 [(182), Ethyl 4-[1-biphenyl-4-yl-5-(2-fluorophenyl)-1H-pyrazol-4-ylmethyl]piperazine-1-carboxylate]
